Data set [1] deals with Rattus norvegicus. Nature of the data set: Antilipidemic activity against Sprague-Dawley rat assessed as liver cholesterol level per gram of tissue at 0.4 mmol/kg, po twice daily for 7 days (reference value: 2.96 +/- 0.42 mg). The data set is classed as functional.
Data set [2] relates to Rattus norvegicus. The data set can be described thus: Antilipidemic activity against Sprague-Dawley rat assessed as liver triglyceride level per gram of tissue at 0.4 mmol/kg, po twice daily for 7 days (reference value: 3.87 +/- 0.59 mg). The data set is classed as functional.
Data set [3] addresses T1, 3-hydroxy-3-methylglutaryl-coenzyme A reductase (Rattus norvegicus) (UniProt P51639).
T1 sequence (whole entry): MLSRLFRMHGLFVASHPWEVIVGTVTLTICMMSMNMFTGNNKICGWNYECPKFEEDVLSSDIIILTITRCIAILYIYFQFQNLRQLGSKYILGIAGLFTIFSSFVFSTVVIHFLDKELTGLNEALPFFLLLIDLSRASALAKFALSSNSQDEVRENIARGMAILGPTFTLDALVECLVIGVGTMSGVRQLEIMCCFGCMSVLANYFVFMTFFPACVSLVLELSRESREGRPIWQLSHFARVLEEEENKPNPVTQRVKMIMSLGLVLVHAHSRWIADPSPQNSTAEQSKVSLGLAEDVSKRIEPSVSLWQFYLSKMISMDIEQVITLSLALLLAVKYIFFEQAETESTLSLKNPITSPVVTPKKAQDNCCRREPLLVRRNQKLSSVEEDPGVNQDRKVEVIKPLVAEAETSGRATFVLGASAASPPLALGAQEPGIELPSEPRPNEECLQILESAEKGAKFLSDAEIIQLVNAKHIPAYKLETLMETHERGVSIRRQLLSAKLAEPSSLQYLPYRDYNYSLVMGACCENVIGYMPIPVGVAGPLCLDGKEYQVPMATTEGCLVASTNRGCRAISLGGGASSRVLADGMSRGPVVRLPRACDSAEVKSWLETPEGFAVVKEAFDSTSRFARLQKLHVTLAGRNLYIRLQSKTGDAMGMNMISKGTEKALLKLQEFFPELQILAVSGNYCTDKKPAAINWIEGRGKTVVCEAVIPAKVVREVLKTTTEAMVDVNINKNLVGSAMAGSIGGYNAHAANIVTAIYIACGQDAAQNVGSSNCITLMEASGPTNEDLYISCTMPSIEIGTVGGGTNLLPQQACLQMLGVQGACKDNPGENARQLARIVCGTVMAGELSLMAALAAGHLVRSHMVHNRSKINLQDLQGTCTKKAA
The data set can be described thus: Inhibition of Sprague-Dawley rat liver microsome HMG-CoA reductase activity assessed as mevalonic acid formation form DL-3-hydroxy-3-methylglutaryl[3-14C]coenzyme by scintillation counting (reference value: 13.2 +/- 3.30 nmol/mg/h). (Microsomes from liver hold many membrane-bound enzymes, among them those of drug oxidation.)

The test system of data set [4] is Rattus norvegicus. Nature of the data set: Antilipidemic activity against Sprague-Dawley rat assessed as increase in liver to body weight at 0.4 mmol/kg, po twice daily for 7 days (reference value: 3.96 +/- 0.20 mg/g). The data set is classed as functional.
The test system of data set [5] is Rattus norvegicus. Nature of the data set: Effect on liver weight in Sprague-Dawley rat at 0.4 mmol/kg, po twice daily for 7 days (reference value: 11.8 +/- 0.93 g). The data set is classed as ADME, organism-based. To be noted: in vivo, 168 h.
Data set [6] relates to Rattus norvegicus. The data set can be described thus: Effect on microsomal protein content in Sprague-Dawley rat at 0.4 mmol/kg, po twice daily for 7 days (reference value: 25.8 +/- 1.17 mg/g). The data set is classed as functional.
For data set [7], the system named is Rattus norvegicus. The data set can be described thus: Antilipidemic activity against Sprague-Dawley rat assessed as increase in liver ethylmorphine N-demethylase activity measured as HCHO formation per mg/min at 0.4 mmol/kg, po twice daily for 7 days (reference value: 6.48 +/- 0.70 nmol). The data set is classed as functional.
Data set [8] relates to Rattus norvegicus. Nature of the data set: Antilipidemic activity against Sprague-Dawley rat assessed as increase in liver NADPH:cyt c reductase activity at 0.4 mmol/kg, po twice daily for 7 days (reference value: 164 +/- 16.7 nmol/mg/min). It is filed as functional.
Data set [9] relates to Rattus norvegicus. The data set can be described thus: Antilipidemic activity against Sprague-Dawley rat assessed as increase in liver cyt b activity measured per mg of protein at 0.4 mmol/kg, po twice daily for 7 days (reference value: 0.310 +/- 0.052 nmol). The data set is classed as functional.
Data set [10] deals with Rattus norvegicus. Nature of the data set: Antilipidemic activity against Sprague-Dawley rat assessed as increase in liver cyt P-450 activity measured per mg of protein at 0.4 mmol/kg, po twice daily for 7 days (reference value: 0.833 +/- 0.0644 nmol). It is filed as functional.

This passage reports Activity results from ChEMBL document CHEMBL3227918, “Synthesis and pharmacological evaluation of cis-3,4,4a,9a-tetrahydro-1H-pyrano[3,4-b]benzofuran-1-ones. Tricyclic analogues related to the antilipidemic drug clofibrate” (J Med Chem, 1979).

SMILES strings stand for the structures.

For the compound `C[C@@]12Oc3ccc(Cl)cc3[C@@H]1CCOC2=O` (relative stereo), the Activity turned out to be 3.19 mg in data set [1]; 7.75 mg in [2]; 8.2 nmol/mg/h in data set [3]; 4.56% in data set [4]; 14.1 g in data set [5]; 31.9 mg/g in data set [6]. In addition, the Activity in data set [7] stood at 11.1 nmol; in data set [8], 315 nmol/mg/min; in [9], 0.421 nmol; in [10] it was 1.62 nmol.
As to `O=C1OCC[C@H]2c3cc(Cl)ccc3O[C@@H]12` (relative stereo), the Activity was determined as 2.93 mg in data set [1]; 5.66 mg in data set [2]; 11 nmol/mg/h in data set [3]; 4.03% in [4]; 12.1 g in [5]; 25.2 mg/g in data set [6]. Further, the Activity in [7] stood at 7.96 nmol; in data set [8] it was 210 nmol/mg/min; in data set [9], 0.292 nmol; in [10], 0.962 nmol.
With `CCOC(=O)C(C)(C)Oc1ccc(Cl)cc1` [CLOFIBRATE], the Activity amounted to 2.59 mg in [1]; 4.65 mg in data set [2]; 11.3 nmol/mg/h in data set [3]; 4.84% in data set [4]; 15.1 g in data set [5]; 29 mg/g in data set [6]. Further, the Activity in data set [7] was determined as 7.82 nmol; in [8], 246 nmol/mg/min; in [9], 0.293 nmol; in data set [10], 1.06 nmol.
